Measurements published in publication PMC8038991, “R-catcher, a potent molecular tool to unveil the arginylome” (Cellular and Molecular Life Sciences: CMLS, 2021).
“Also recorded” adds a separate entry of the source. Where two headings read alike, the source gives them in different places. One block for each molecule: values may come before it. Peptide text beside a SMILES is read from it.

How the values were obtained:
[1] = target: T1, GST-ZZ122-175 domain (p62) (Homo sapiens, UniProt Q13501); experiment: Isothermal titration calorimetry, GST-ZZ122-175 (Fig. 2e); assay type: binding
T1 construct: GST-fused p62 (122–175) wild type and mutants (N132Q and N132D) were expressed in E. coli; made in house; host or cells: E. coli BL21 (DE3) RIL
Procedure: (§1) For isothermal titration calorimetry (ITC), GST-fused p62 (122–175) wild type and mutants (N132Q and N132D) were expressed in E. coli BL21 (DE3) RIL competent cells in Luria–Bertani media with 0.1 mM Isopropyl-β-D-thio-galactoside (IPTG) at 18 °C. Cells were collected and sonicated in a B buffer (50 mM Tris–HCl pH 7.5, 200 mM NaCl) containing 3 mM β-mercaptoethanol (β-ME). Cell lysates were centrifuged at 18,000 × g for 1 h to remove cell debris, and this supernatant was loaded onto Glutathione Sepharose™ 4 Fast Flow resin and washed with B buffer. GST-fused proteins were eluted with 20 mM glutathione in an elution buffer (100 mM Tris–HCl pH 7.5, 200 mM NaCl, and 3 mM β-ME). The eluted samples were dialyzed in a dialysis buffer (50 mM Tris–HCl pH 7.5, 50 mM NaCl, and 3 mM β-ME) with or without TEV protease. These samples were loaded onto anion exchange column (HiTrap Q HP, GE Healthcare) and unbounded samples were collected and loaded onto size exclusion chromatography (HiLoad ™ 25/600 Superdex™ 75 pg column, GE healthcare) with the B buffer containing 0.2 mM Tris(2-carboxyethyl)phosphine (TCEP).
(§2) Purified proteins were concentrated to 0.05 mM. 4-mer peptides as injectant were resolved in B buffer to a final concentration of 1 mM. ITC measurement was performed at 25 °C on a Microcal Auto-ITC200.

[2] = target: T2, wild type ZZ122-175 (p62) (Homo sapiens, UniProt Q13501); experiment: Isothermal titration calorimetry, wild type ZZ (Fig. 3b); details: ITC, wild type ZZ122-175, 25 °C; read-out: binding affinity (KD)
T2 construct: GST-fused p62 (122–175) wild type and mutants (N132Q and N132D) were expressed in E. coli; GST (N); made in house; host or cells: E. coli BL21 (DE3) RIL

[3] = target: T3, N132D mutant ZZ122-175 (p62) (Homo sapiens, UniProt Q13501, N132D); experiment: Isothermal titration calorimetry, N132D ZZ; details: ITC, N132D ZZ122-175, 25 °C; read-out: binding affinity (KD)
T3 construct: GST-fused p62 (122–175) wild type and mutants (N132Q and N132D) were expressed in E. coli; GST (N); made in house; host or cells: E. coli BL21 (DE3) RIL

[4] = target: T4, N132Q mutant ZZ122-175 (p62) (Homo sapiens, UniProt Q13501, N132Q); experiment: biochemical; assay type: binding
T4 construct: GST-fused p62 (122–175) wild type and mutants (N132Q and N132D) were expressed in E. coli; GST (N); made in house; host or cells: E. coli BL21 (DE3) RIL

[5] = tested on: R-catcher; experiment: Small-scale R-catcher pulldown of known arginylated proteins; assay type: binding, human; details: for pulldown by R-catcher, overexpressed substrates: HEK293 cells, R-catcher on tactin beads, immunoblot
Procedure: (§3) For small-scale R-catcher pull-down assays, 300 µg of purified R-catcher was conjugated with 120 µl of Strep-Tactin sepharose resin by incubating overnight at 4 °C. To test R-catcher’s ability to capture known arginylated proteins, such as R-BiP, R-PDI, R-nsP4 and R-RGS4, plasmids encoding Ub-X-(BiP, PDI and nsP4) or MX-RGS4 (X = Arg or Val) were transiently transfected into HEK293 cells. After 24 h, cells were treated with 10 µM MG132 and 100 nM thapsigargin for another 24 h. Cells were harvested and lysed in hypotonic buffer and 300 µg total protein was incubate with 25 µl R-catcher-sepharose resin in binding buffer (20 mM HEPES pH 7.9, 0.05% Tween 20, 10% glycerol, 0.2 M KCl, protease inhibitor and phosphatase inhibitor) for 3 h with gentle rotation at 4 °C. After three washes with binding buffer, bound proteins were dissociated with 2 × SDS sample buffer and boiling at 100 °C and subjected to immunoblotting using anti-myc or flag antibodies.

[6] = tested on: HeLa cell extracts stimulated with MG132 plus TG; experiment: Large-scale R-catcher pulldown coupled to silver staining and LC-MS/MS; design: species or system human; details: for presence in R-catcher working list: LC-MS/MS working list
Procedure: For large-scale R-catcher pulldown assays, HeLa cells were treated with 5 µM MG132 and 100 nM thapsigargin for 24 h. Cells were lysed in hypotonic buffer and 10 mg total was incubated with 750 µl R-catcher-sepharose beads for 3 h at 4 °C after pre-clearing with D129A mutant R-catcher-sepharose beads for 3 h at 4 °C. After three washes with binding buffer, bound proteins were eluted with binding buffer containing 20 mM D-biotin. To remove R-catcher, the eluent was dialyzed using 20 kDa cut-off dialysis membrane in binding buffer containing 3.5 M MgCl2 overnight followed by another overnight dialysis in distilled-deionized water. The dialyzed eluent was lyophilized overnight and dried powder was dissolved in 100 µl LC/MS solubilizer for silver staining and mass spectrometry analysis.
Protein samples solubilized in Invitrosol LC/MS solubilizer (Invitrogen) as following by manufacturer protocol. For removal of incompatible buffer components, protein samples filtrate with 10 K MW ultrafilter for complete digestion. For preparing trypsinization of samples, the retentates were dissolved in 50 mM of ammonium bicarbonate (pH 8.0) untill it reach 1 μg/μL of final concentration. The samples treated with 10 mM DTT at 60 °C for 45 min. Following 20 mM IAA addition, the final mixture incubated in dark for 45 min at 25 °C. 1:50 ratio of Trypsin was added on mixture. The mixture incubated overnight at 37 °C. Final digested samples dried with speed-vacuum. Samples re-dissolved in 20 μL of water containing 0.1% formic acid for LC–MS/MS analysis.
Peptides were analyzed using a LC–MS/MS system consisting of an Easy nLC 1000 (Thermo Fisher scientific) and an Orbitrap Fusion Lumos mass spectrometer (Thermo Fisher Scientific) equipped with a nano-electrospray source (EASY-Spray Sources, Thermo Fisher Scientific). Peptides were trapped 75 μm × 2 cm C18 pre-column (nanoViper, Acclaim PepMap100, Thermo Fisher Scientific) before being separated on an analytical C18 column (75 μm × 50 cm PepMap RSLC, Thermo Fisher Scientific) at a flow rate of 300 nL/min. The mobile phases A and B were composed of 0 and 100% acetonitrile containing 0.1% formic acid, respectively. The LC gradient began with 5% B and was ramped to 8% B for 1 min, 10% B for 16 min, to 40% B for 79 min, to 80% B for 1 min, and remained at 80% B over 8 min. Finally, it was ramped to 5% B for another 5 min. The column was re-equilibrated with 2% B for 10 min before the next run. The voltage applied to produce an electrospray was 1900 V. During the chromatographic separation, the Orbitrap Fusion Lumos was operated in data-dependent mode, automatically switching between MS1 and MS2. The MS data were acquired using the following parameters: Full-scan MS1 spectra (400–1600 m/z) were acquired in the Orbitrap for a maximum ion injection time of 100 ms at a resolution of 120,000 and an automatic gain control (AGC) target value of 4.0e5. MS2 spectra were acquired in the Orbitrap mass analyzer at resolution of 30,000 with high-energy collision dissociation (HCD) of 27% normalized collision energy and AGC target value of 5.0e4 with maximum ion injection time of 54 ms. Previously fragmented ions were excluded for 30 s.
MS/MS spectra were analyzed using the following software analysis protocols with the Uniprot human DB (2019). The reversed sequences of all proteins were appended into the database for calculation of false discovery rate (FDR). ProLucid was used to identify the peptides, a precursor mass error of 5 ppm, and a fragment ion mass error of 200 ppm. Trypsin was selected as the enzyme, with one potential missed cleavage. Carbamidomethylation at cystein was chosen as static modifications. Oxidation at methionine was chosen as variable modification. The output data files were filtered and sorted to compose the protein list using the DTASelect (The Scripps Research Institute, USA) with two and more peptides assignments for a protein identification and a false positive rate less than 0.01. […]

[7] = tested on: ZZ wild type, ZZ (N132D) and ZZ (N132Q); experiment: Isothermal titration calorimetry, any ZZ domain (wild type, N132D, N132Q); assay type: binding, human; details: ITC, 25 °C
Procedure: as §1, §2

[8] = tested on: R-catcher; experiment: R-catcher pulldown of putative arginylated ER proteins, HeLa; assay type: binding, human; details: 5 µM MG132 plus 100 nM TG, RA competition, Fig. 6a
Procedure: as §3
Plasmids encoding the proteins were transiently transfected to HeLa cells for 24 h and stimulated with 5 µM MG132 plus 100 nM TG for another 24 h. Cell lysates were incubated with R-catcher immobilized on tactin beads for 3 h. After wash, bound proteins were eluted with 2 × SDS sample buffer followed by boiling at 100 °C for 10 min and visualized by western blot analysis. b R-catcher pulldown assays to validate ATE1-dependent arginylation of […]1, PRDX4, FBLN1 and CLUS. Plasmids encoding […]1, PRDX4, FBLN1 and CLUS were transiently transfected into + / + and ATE1^−/− MEFs for 24 h and stimulated with 5 µM MG132 plus 100 nM TG for another 9 h. Cell lysates were subjected to R-catcher pulldown, and bound proteins were detected by western blot analysis. c R-catcher pull-down assays to evaluate if the arginylation of FBNL1, SERPINH1, CLUS and PRDX4 is induced in response to MG132 plus thapsigargin. d X-peptide pulldown assays to confirm no interaction of R-catcher with Nt-Ala19 of SERPINH1 peptides and Nt-Trp38 of PRDX4 peptides. X-peptides where X is A19 (SignalP predicted P1’ site), E20 (next possible P1’ site predicted by PrediSi) or R19 (Arginylated form of Glu) for SERPINH1 and W38 (SignalP predicted P1’ site), E39 (next possible P1’ site predicted by PrediSi) or R38 (Arginylated form) for PRDX4. Biotinylated X-peptides immobilized on streptavidin agarose beads were incubated with affinity-purified GST-ZZ ([…]). Bound GST-ZZ (N132D) was detected by immunoblotting. e Identification of arginylated sites employing mutational analysis. Predicted P1’ sites of SERPINH1, PRDX4, CLUS and FBLN1 were substituted to Gly, and the inhibitory effect of the mutation on binding with R-catcher was examined by performing R-catcher pulldown assays

T3 sequence (Q13501 122-175 N132D): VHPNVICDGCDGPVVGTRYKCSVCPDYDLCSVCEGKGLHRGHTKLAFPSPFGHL
T2 sequence (Q13501 122-175): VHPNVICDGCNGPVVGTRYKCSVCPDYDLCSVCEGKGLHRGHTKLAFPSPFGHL
T1 sequence (Q13501 122-175): as above
T4 sequence (Q13501 122-175 N132Q): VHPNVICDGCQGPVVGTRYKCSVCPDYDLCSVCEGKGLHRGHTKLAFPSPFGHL

Molecule: CC[C@H](C)[C@H](NC(=O)[C@@H](N)CCCNC(=N)N)C(=O)N[C@@H](Cc1ccccc1)C(=O)N[C@@H](CO)C(=O)O [RIFS] (H-RIFS-OH)
Kd [1]: 4.39 ± 0.449 µM
Kd [2]: 6.9 µM
Kd [3]: 2.85 µM
Kd [4]: 21.4 ± 9.51 µM

Molecule: CC[C@H](C)[C@H](NC(=O)[C@@H](N)Cc1ccc(O)cc1)C(=O)N[C@@H](Cc1ccccc1)C(=O)N[C@@H](CO)C(=O)O [YIFS] (H-YIFS-OH)
Kd ([1]; ITC, (GST-)ZZ122-175 wild type, 25 °C, read-out: KD): 16.1 µM
Kd [2]: 20.7 µM
Kd [3]: 107 µM

Molecule: BiP: ER chaperone BiP, arginylated (2nd Glu)
pulldown by R-catcher, overexpressed substrates ([5]; Fig. 4d): could pulldown
pulldown by R-catcher, endogenous ([5]; HeLa, MG132 plus TG, Fig. 4e): could pulldown
presence in R-catcher working list [6]: among the known arginylated proteins

Molecule: FIFS [peptide]
affinity for ZZ domains [7]: no affinity

Molecule: IIFS [peptide]
affinity for ZZ domains [7]: no affinity

binding affinity for R-catcher ([5]; Fig. 4d, discussion): low binding affinity
Molecule: PDI: protein disulfide isomerase, arginylated (2nd Asp)
pulldown by R-catcher, overexpressed substrates ([5]; Fig. 4d): could pulldown
presence in R-catcher working list [6]: not detected in our list

Molecule: TIFS [4-mer peptide]
affinity for ZZ domains [7]: no affinity

Molecule: FKBP10: FK506-binding protein 10
binding with R-catcher, Nt-Arg dependence [8]: Nt-Arg-dependent binding with R-catcher; also recorded: unusually high binding affinity for R-catcher

Molecule: ENPL: endoplasmin
binding with R-catcher, Nt-Arg dependence [8]: no significant binding affinity for R-catcher

Molecule: R-catcher: ZZ122-175^N132D tagged with twin strepII-His6 at the N-terminus, approximately 9 kDa protein
number of known and putative arginylated proteins captured (final working list) ([6]; HeLa, MG132 + TG): 59 proteins
number of proteins in WT list ([6]; no dipeptide, LC-MS/MS, Fig. 5c): 83 proteins
number of proteins in AR list ([6]; with AR dipeptide competition): 163 proteins
number of proteins in RA list ([6]; with RA dipeptide competition): 42 proteins

Molecule: LIFS [peptide]
affinity for ZZ domains [7]: no affinity

R-PDI binding to R-catcher, preliminary ([5]; preliminary result, N-termini enhancing methods): detected R-PDI binding to R-catcher
Molecule: R-PDI: arginylated PDI
